Results as given in a compilation of properties of binary mixtures (doi:10.1007/s10973-014-3978-x).

Test: xn = mol fraction of the nth substance listed
Conditions: 101 kPa

O=C1CCCC1 + CC[n+]1ccn(C)c1.F[B-](F)(F)F
speed of sound [m/s]
Conditions | 293.15 K | 298.15 K | 303.15 K | 308.15 K
x1 = 0.0877 | 1643.2 | 1628.4 | 1615.4 | –
x1 = 0.1164 | 1644.4 | 1629.3 | 1615.2 | 1599.6
x1 = 0.1767 | 1642 | 1625.9 | 1611.6 | 1595.8
x1 = 0.2302 | 1633.9 | 1619.2 | – | 1588.2
x1 = 0.2879 | 1622.5 | 1606.5 | – | 1576.9
x1 = 0.3434 | – | 1592.4 | 1577.1 | 1562.1
x1 = 0.3887 | 1593.6 | 1578.2 | – | 1548
x1 = 0.478 | 1562.8 | – | 1530.1 | –
x1 = 0.5114 | – | 1533.8 | 1517.1 | 1502.2
x1 = 0.5878 | 1522.6 | 1504.6 | 1486.7 | 1470.6
x1 = 0.6115 | 1513.9 | 1495.8 | 1477.3 | 1460.7
x1 = 0.6411 | 1503.2 | 1485 | 1465.7 | 1448.7
x1 = 0.6834 | – | 1469.2 | 1449.6 | 1431.7
x1 = 0.7649 | 1462.6 | 1441.6 | 1421.2 | 1402.3
x1 = 0.7867 | 1456.3 | 1435.4 | 1414.3 | 1394.6
x1 = 0.8157 | – | 1427 | 1405.9 | 1385.8
x1 = 0.8755 | – | 1412.3 | – | 1370.4
x1 = 0.9061 | 1427.6 | 1406 | 1384.4 | 1363.9

CC[n+]1ccn(C)c1.F[B-](F)(F)F + O=C1CCCCC1
speed of sound [m/s]
Conditions | 293.15 K | 298.15 K | 303.15 K | 308.15 K
x2 = 0.0789 | 1623.5 | 1613.7 | 1602.6 | –
x2 = 0.1407 | 1616.1 | 1607.6 | 1595.3 | 1581
x2 = 0.1861 | 1609.9 | – | 1587.8 | 1573.9
x2 = 0.2271 | 1603 | 1593.7 | 1580.5 | 1565.6
x2 = 0.2765 | – | – | 1570.4 | –
x2 = 0.3069 | 1588.5 | – | 1563.6 | –
x2 = 0.3898 | 1571.3 | 1560.2 | 1543.8 | 1527.9
x2 = 0.4269 | 1562.9 | – | 1534.4 | 1518.2
x2 = 0.489 | 1548.9 | – | 1518.4 | 1501.3
x2 = 0.5007 | 1545.9 | 1532.4 | 1515 | 1498.2
x2 = 0.5432 | 1535.6 | – | 1503.3 | 1486.5
x2 = 0.6302 | 1514.1 | 1499.3 | 1480.2 | 1462.4
x2 = 0.6848 | – | 1484.9 | 1465.9 | 1447.8
x2 = 0.7559 | 1483.3 | 1467.5 | – | 1428.7
x2 = 0.779 | 1477.4 | 1461.4 | 1441.7 | 1423.1
x2 = 0.8235 | 1467.2 | 1450.9 | 1431.5 | 1412.3
x2 = 0.8675 | 1457 | 1440.8 | – | –
x2 = 0.9001 | 1450.6 | 1433.9 | 1414.6 | 1395
